In this assay the target is MALT1 (Homo sapiens (Human), UniProt Q9UDY8). Description: MALT1 enzymatic activity inhibition (fluorescence, Ac-LRSR-AMC substrate). The format is biochemical. As to conditions: recombinant MALT1 1.5 ng/μl, Ac-LRSR-AMC 1 μM. The procedure, abridged:
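Recombinant human MALT1 (1.5 ng/μl final) preincubated 10 min at rt with compounds in 50 mM HEPES pH 7.2-7.4, 100 mM NaCl, 900 mM sodium citrate, 10 mM DTT; 1 μM Ac-LRSR-AMC then added. AMC fluorescence read at start and after 30 min 37 °C plus 30 min rt; difference gives signal, % inhibition fitted to IC50.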

Bounds are passed on as bounds.

Chain of MALT1 (Q9UDY8 whole entry): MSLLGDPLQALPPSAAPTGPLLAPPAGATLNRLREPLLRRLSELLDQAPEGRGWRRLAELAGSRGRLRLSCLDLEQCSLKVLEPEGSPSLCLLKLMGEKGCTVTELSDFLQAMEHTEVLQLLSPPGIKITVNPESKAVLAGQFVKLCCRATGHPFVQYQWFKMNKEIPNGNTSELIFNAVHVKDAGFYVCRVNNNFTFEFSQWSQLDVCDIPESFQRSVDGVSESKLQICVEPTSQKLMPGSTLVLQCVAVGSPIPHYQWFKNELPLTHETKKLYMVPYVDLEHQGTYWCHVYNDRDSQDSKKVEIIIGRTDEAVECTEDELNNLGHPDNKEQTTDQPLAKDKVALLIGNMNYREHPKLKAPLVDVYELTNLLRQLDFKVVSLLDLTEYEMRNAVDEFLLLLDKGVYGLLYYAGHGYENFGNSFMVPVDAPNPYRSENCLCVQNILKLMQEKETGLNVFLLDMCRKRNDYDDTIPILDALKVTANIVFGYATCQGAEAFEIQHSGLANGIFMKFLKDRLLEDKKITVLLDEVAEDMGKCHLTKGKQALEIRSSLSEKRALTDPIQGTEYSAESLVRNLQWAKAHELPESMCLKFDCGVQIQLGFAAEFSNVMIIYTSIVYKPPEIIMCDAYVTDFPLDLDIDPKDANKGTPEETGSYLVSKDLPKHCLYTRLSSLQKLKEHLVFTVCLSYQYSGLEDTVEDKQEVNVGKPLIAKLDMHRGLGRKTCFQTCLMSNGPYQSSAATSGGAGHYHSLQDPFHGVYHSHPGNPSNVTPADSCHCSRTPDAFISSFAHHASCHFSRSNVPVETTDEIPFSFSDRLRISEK

On to `O=C1CCC(N2Cc3cc(N4CCN(C(=O)CCCc5nc(-c6ncc(NC(=O)Nc7cnc8ccnn8c7C7CCCC7)cc6F)no5)CC4)ccc3C2=O)C(=O)N1` (stereo not shown) [Compound 77, 1-(7-cyclopentylpyrazolo[1,5-a]pyrimidin-6-yl)-3-[6-[5-[4-[4-[2-(2,6-dioxo-3-piperidyl)-1-oxo-isoindolin-5-yl]piperazin-1-yl]-4-oxo-butyl]-1,2,4-oxadiazol-3-yl]-5-fluoro-3-pyridyl]urea], for which the EC50 is no more than 0.2 µM. Then `Cc1cc(NC(=O)Nc2cnc3ccnn3c2C2CCCCC2)cnc1-c1noc(CCCCN2CCN(c3ccc4c(c3)CN(C3CCC(=O)NC3=O)C4=O)CC2)n1` (stereo not shown) [Compound 141, 1-(7-cyclohexylpyrazolo[1,5-a]pyrimidin-6-yl)-3-[6-[5-[4-[4-[2-(2,6-dioxo-3-piperidyl)-1-oxo-isoindolin-5-yl]piperazin-1-yl]butyl]-1,2,4-oxadiazol-3-yl]-5-methyl-3-pyridyl]urea], with 0.2 to 0.5 µM; and `CC(C)c1c(NC(=O)Nc2ccc(-c3nnc(CCCCCC(=O)N4CCN(c5ccc6c(c5)CN(C5CCC(=O)NC5=O)C6=O)CC4)s3)nc2)cnc2ccnn12` (stereo not shown) [Compound 129, 1-[6-[5-[6-[4-[2-(2,6-dioxo-3-piperidyl)-1-oxo-isoindolin-5-yl]piperazin-1-yl]-6-oxo-hexyl]-1,3,4-thiadiazol-2-yl]-3-pyridyl]-3-(7-isopropylpyrazolo[1,5-a]pyrimidin-6-yl)urea], with 1 to 5 µM; and `CC(C)c1c(NC(=O)Nc2cnc(-c3noc(CCCCCC(=O)N4CCN(c5ccc6c(c5)CN(C5CCC(=O)NC5=O)C6=O)CC4)n3)c(Cl)c2)cnc2ccnn12` (stereo not shown) [Compound 66, 1-[5-chloro-6-[5-[6-[4-[2-(2,6-dioxo-3-piperidyl)-1-oxo-isoindolin-5-yl]piperazin-1-yl]-6-oxo-hexyl]-1,2,4-oxadiazol-3-yl]-3-pyridyl]-3-(7-isopropylpyrazolo[1,5-a]pyrimidin-6-yl)urea], with no more than 0.2 µM. In the case of `CC(C)c1c(NC(=O)Nc2ccc(-c3nnc(CCCCCCN4CCN(c5ccc6c(c5)CN(C5CCC(=O)NC5=O)C6=O)CC4)s3)nc2)cnc2ccnn12` (stereo not shown) [Compound 142, 1-[6-[5-[6-[4-[2-(2,6-dioxo-3-piperidyl)-1-oxo-isoindolin-5-yl]piperazin-1-yl]hexyl]-1,3,4-thiadiazol-2-yl]-3-pyridyl]-3-(7-isopropylpyrazolo[1,5-a]pyrimidin-6-yl)urea], the EC50 was 1 to 5 µM. To `CCCCOP(=O)(OCCCC)OCN1C(=O)CCC(N2Cc3cc(N4CCN(C(=O)CCCCCc5nc(-c6ncc(NC(=O)Nc7cnc8ccnn8c7C7CCCC7)cc6Cl)no5)CC4)ccc3C2=O)C1=O` (stereo not shown) [Compound 103, dibutyl [3-[5-[4-[6-[3-[3-chloro-5-[(7-cyclopentylpyrazolo[1,5-a]pyrimidin-6-yl)carbamoylamino]-2-pyridyl]-1,2,4-oxadiazol-5-yl]hexanoyl]piperazin-1-yl]-1-oxo-isoindolin-2-yl]-2,6-dioxo-1-piperidyl]methyl phosphate] belongs greater than 5 µM; to `O=C1CCC(N2Cc3cc(N4CCN(C(=O)CCCCc5nc(-c6ncc(NC(=O)Nc7cnc8ccnn8c7C7CCCCC7)cc6Cl)no5)CC4)ccc3C2=O)C(=O)N1` (stereo not shown) [Compound 98, 1-[5-chloro-6-[5-[5-[4-[2-(2,6-dioxo-3-piperidyl)-1-oxo-isoindolin-5-yl]piperazin-1-yl]-5-oxo-pentyl]-1,2,4-oxadiazol-3-yl]-3-pyridyl]-3-(7-cyclohexylpyrazolo[1,5-a]pyrimidin-6-yl)urea], no more than 0.2 µM. Then `COc1cc(-c2c(NC(=O)Nc3cnc(NCCOCCOCCC(=O)N4CCN(c5ccc6c(c5)CN(C5CCC(=O)NC5=O)C6=O)CC4)c(C)c3)cnc3ccnn23)cc(OC)c1OC` (stereo not shown) [Compound 27, 1-[6-[2-[2-[3-[4-[2-(2,6-dioxo-3-piperidyl)-1-oxo-isoindolin-5-yl]piperazin-1-yl]-3-oxo-propoxy]ethoxy]ethylamino]-5-methyl-3-pyridyl]-3-[7-(3,4,5-trimethoxyphenyl)pyrazolo[1,5-a]pyrimidin-6-yl]urea], with greater than 5 µM; and `O=C1CCC(N2Cc3cc(N4CCN(CCCCCc5nc(-c6ncc(NC(=O)Nc7cnc8ccnn8c7C7CC7)cc6Cl)no5)CC4)ccc3C2=O)C(=O)N1` (stereo not shown) [Compound 161, 1-[5-chloro-6-[5-[5-[4-[2-(2,6-dioxo-3-piperidyl)-1-oxo-isoindolin-5-yl]piperazin-1-yl]pentyl]-1,2,4-oxadiazol-3-yl]-3-pyridyl]-3-(7-cyclopropylpyrazolo[1,5-a]pyrimidin-6-yl)urea], with no more than 0.2 µM.

In the case of `CC(C)c1c(NC(=O)Nc2cnc(-c3noc(CCCC(=O)N4CCN(c5ccc6c(c5)CN(C5CCC(=O)NC5=O)C6=O)CC4)n3)c(Cl)c2)cnc2ccnn12` (stereo not shown) [Compound 140, 1-[5-chloro-6-[5-[4-[4-[2-(2,6-dioxo-3-piperidyl)-1-oxo-isoindolin-5-yl]piperazin-1-yl]-4-oxo-butyl]-1,2,4-oxadiazol-3-yl]-3-pyridyl]-3-(7-isopropylpyrazolo[1,5-a]pyrimidin-6-yl)urea], the EC50 is no more than 0.2 µM.

On to `Cc1cc(NC(=O)Nc2cnc3c(Cl)cnn3c2C2CCCC2)cnc1-c1noc(CCCN2CCN(c3cc4c(cc3F)C(=O)N(C3CCC(=O)NC3=O)C4=O)CC2)n1` (stereo not shown) [Compound 24, 1-(3-chloro-7-cyclopentyl-pyrazolo[1,5-a]pyrimidin-6-yl)-3-[6-[5-[3-[4-[2-(2,6-dioxo-3-piperidyl)-6-fluoro-1,3-dioxo-isoindolin-5-yl]piperazin-1-yl]propyl]-1,2,4-oxadiazol-3-yl]-5-methyl-3-pyridyl]urea], for which the EC50 is 1 to 5 µM. Regarding `O=C(CCOCCN1CCN(c2ccc3c(c2)CN(C2CCC(=O)NC2=O)C3=O)CC1)NCCOc1ncc(Cl)cc1NC(=O)Nc1cnc2ccnn2c1C1CCCO1` (stereo not shown) [Compound 36, N-[2-[[5-chloro-3-[(7-tetrahydrofuran-2-ylpyrazolo[1,5-a]pyrimidin-6-yl)carbamoylamino]-2-pyridyl]oxy]ethyl]-3-[2-[4-[2-(2,6-dioxo-3-piperidyl)-1-oxo-isoindolin-5-yl]piperazin-1-yl]ethoxy]propanamide], the EC50 lay in the range of 0.5 to 1 µM. To `O=C1CCC(N2Cc3cc(N4CCN(CCCCCn5cc(NC(=O)Nc6cnc7ccnn7c6C6CCC6)c(C(F)(F)F)n5)CC4)ccc3C2=O)C(=O)N1` (stereo not shown) [Compound 156, 1-(7-cyclobutylpyrazolo[1,5-a]pyrimidin-6-yl)-3-[1-[5-[4-[2-(2,6-dioxo-3-piperidyl)-1-oxo-isoindolin-5-yl]piperazin-1-yl]pentyl]-3-(trifluoromethyl)pyrazol-4-yl]urea] belongs greater than 5 µM; to `O=C(CCOCCN1CCN(c2ccc3c(c2)CN(C2CCC(=O)NC2=O)C3=O)CC1)NCCOc1ncc(Cl)cc1NC(=O)Nc1cnc2ncnn2c1C1CCCCC1` (stereo not shown) [Compound 51, N-[2-[[5-chloro-3-[(7-cyclohexyl-[1,2,4]triazolo[1,5-a]pyrimidin-6-yl)carbamoylamino]-2-pyridyl]oxy]ethyl]-3-[2-[4-[2-(2,6-dioxo-3-piperidyl)-1-oxo-isoindolin-5-yl]piperazin-1-yl]ethoxy]propanamide], greater than 5 µM; to `O=C1CCC(N2Cc3cc(N4CCN(CCCCc5nc(-c6ncc(NC(=O)Nc7cnc8ccnn8c7C7CCCC7)cc6Cl)no5)CC4)ccc3C2=O)C(=O)N1` (stereo not shown) [Compound 75, 1-[5-chloro-6-[5-[4-[4-[2-(2,6-dioxo-3-piperidyl)-1-oxo-isoindolin-5-yl]piperazin-1-yl]butyl]-1,2,4-oxadiazol-3-yl]-3-pyridyl]-3-(7-cyclopentylpyrazolo[1,5-a]pyrimidin-6-yl)urea], no more than 0.2 µM. To `COc1cc(-c2c(NC(=O)Nc3cnc(-n4cc(C(=O)NCCOCCOCCC(=O)N5CCN(c6ccc7c(c6)CN(C6CCC(=O)NC6=O)C7=O)CC5)cn4)c(C)c3)cnc3ccnn23)cc(OC)c1OC` (stereo not shown) [Compound 28, N-[2-[2-[3-[4-[2-(2,6-dioxo-3-piperidyl)-1-oxo-isoindolin-5-yl]piperazin-1-yl]-3-oxo-propoxy]ethoxy]ethyl]-1-[3-methyl-5-[[7-(3,4,5-trimethoxyphenyl)pyrazolo[1,5-a]pyrimidin-6-yl]carbamoylamino]-2-pyridyl]pyrazole-4-carboxamide] belongs greater than 5 µM; to `CO[C@@H](C)c1c(NC(=O)Nc2cc(Cl)cnc2OCCNC(=O)CCOCCN2CCN(c3ccc4c(c3)CN(C3CCC(=O)NC3=O)C4=O)CC2)cnc2ccnn12` (stereo partly drawn) [Compound 25, N-[2-[[5-chloro-3-[[7-[(1S)-1-methoxyethyl]pyrazolo[1,5-a]pyrimidin-6-yl]carbamoylamino]-2-pyridyl]oxy]ethyl]-3-[2-[4-[2-(2,6-dioxo-3-piperidyl)-1-oxo-isoindolin-5-yl]piperazin-1-yl]ethoxy]propanamide], 0.2 to 0.5 µM; to `O=C1CCC(N2Cc3cc(N4CCN(C(=O)CCCCn5cc(NC(=O)Nc6cnc7ccnn7c6C6CCCC6)c(C(F)(F)F)n5)CC4)ccc3C2=O)C(=O)N1` (stereo not shown) [Compound 151, 1-(7-cyclopentylpyrazolo[1,5-a]pyrimidin-6-yl)-3-[1-[5-[4-[2-(2,6-dioxo-3-piperidyl)-1-oxo-isoindolin-5-yl]piperazin-1-yl]-5-oxo-pentyl]-3-(trifluoromethyl)pyrazol-4-yl]urea], 1 to 5 µM. To `Cc1cc(NC(=O)Nc2cnc3ccnn3c2C(C)C)cnc1-c1noc(CCCC(=O)N2CCN(c3ccc4c(c3)CN(C3CCC(=O)N(COC(=O)C(C)(C)C)C3=O)C4=O)CC2)n1` (stereo not shown) [Compound 149, [3-[5-[4-[4-[3-[5-[(7-isopropylpyrazolo[1,5-a]pyrimidin-6-yl)carbamoylamino]-3-methyl-2-pyridyl]-1,2,4-oxadiazol-5-yl]butanoyl]piperazin-1-yl]-1-oxo-isoindolin-2-yl]-2,6-dioxo-1-piperidyl]methyl 2,2-dimethylpropanoate] belongs no more than 0.2 µM.

The term EC50 denotes the midpoint of the concentration-response curve.

These data come from patent US20250163066A1, “PROTACs of MALT1” (TEGID THERAPEUTICS, INC., priority 2022, published 2025).
